Reference: US11618747B2, “LXR modulators with bicyclic core moiety” (OrsoBio, Inc., priority 2018, dated 2023)

These molecules were tested against T1, LXRβ ligand-binding domain (Homo sapiens, UniProt P55055, DUP175-175) (assay: TR-FRETβ activity assay (NCoA3 coactivator peptide recruitment)). Conditions: TR-FRET, 1 μM 24(S)-25-epoxycholesterol prestimulation; read-out: FRETβ (EC50 range).
T1 construct: amino acids 156-461; NP009052; made in house; host or cells: E. coli
T1 sequence (P55055 with tags, fused parts or gaps DUP175-175 limits assumed): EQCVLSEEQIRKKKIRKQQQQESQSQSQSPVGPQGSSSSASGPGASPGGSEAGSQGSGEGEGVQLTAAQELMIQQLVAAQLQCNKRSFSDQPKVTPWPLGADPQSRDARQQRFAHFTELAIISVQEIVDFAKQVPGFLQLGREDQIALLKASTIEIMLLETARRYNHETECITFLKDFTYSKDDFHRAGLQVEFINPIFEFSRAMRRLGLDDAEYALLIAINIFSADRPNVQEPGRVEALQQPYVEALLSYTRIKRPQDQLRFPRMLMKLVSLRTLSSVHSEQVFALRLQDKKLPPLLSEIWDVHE
Format: biochemical
Method in brief: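 Inverse agonism assessed by loss of coactivator recruitment, read as TR-FRET 665/615 nm after 1 h equilibration at 4 °C, in triplicate. Ten-point titration from 50 μM to 0.002 μM against LXRβ LBD (76 nM, GST fusion) prestimulated with 1 μM 24(S)-25-epoxycholesterol, with 400 nM NCoA3 peptide, pH 6.8. Sulfonyl acetic acids kept as 20 mM DMSO stocks with 100 mM TFA.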

| SMILES | EC50 [nM] |
| --- | --- |
| O=C(O)c1ccc(-c2cccc(-c3c(-c4ccccc4C4(F)CNC4)c4cc(F)ccc4n3S(=O)(=O)c3ccc(C(F)F)cc3)c2)c(Cl)c1 [3/61] | 100 to 1000 |
| CN1CC(F)(c2ccccc2-c2c(-c3cccc(-c4ccc(C(=O)O)cc4Cl)c3)n(S(=O)(=O)c3ccc(C(F)F)cc3)c3ccc(F)cc23)C1 [3/62] | 100 to 1000 |
| O=C(O)c1ccc(-c2cccc(-c3c(-c4ccsc4C4COC4)c4cc(F)ccc4n3S(=O)(=O)c3ccc(C(F)F)cc3)c2)c(Cl)c1 [3/63] | < 100 |
| Cc1ccc(S(=O)(=O)n2c(-c3cccc(C4CC5(CC(C(=O)O)C5)C4)c3)c(-c3ccsc3C#N)c3cc(F)ccc32)cc1 (stereo not drawn) [3/65] | 100 to 1000 |
| CC1(C)CCN(S(=O)(=O)n2c(-c3cccc(-c4ccc(C(=O)O)cc4)c3)c(-c3ccsc3C#N)c3ccccc32)CC1 [3/66] | 1000 to 10000 |
| N#Cc1cccc(C#N)c1-c1c(-c2cccc(N3CC(C(=O)O)C3)c2)n(S(=O)(=O)c2ccc(C(F)F)cc2)c2ccc(F)cc12 [3/67] | 100 to 1000 |
| N#Cc1cccc(C#N)c1-c1c(-c2cccc(C3CC3C(=O)O)c2)n(S(=O)(=O)c2ccc(C(F)F)cc2)c2ccc(F)cc12 (stereo not drawn) [3/68] | 100 to 1000 |
| O=C(O)c1ccc(-c2cccc(-c3c(-c4cccc5oncc45)c4cc(F)ccc4n3S(=O)(=O)c3ccc(C(F)F)cc3)c2)c(Cl)c1 [3/69] | 100 to 1000 |
| N#Cc1cccc(C#N)c1-c1c(-c2cccc(-c3ccc(C(=O)O)cc3Cl)c2)n(S(=O)(=O)c2ccc(C(F)F)cc2)c2cnc(O)cc12 [3/70] | 100 to 1000 |
| N#Cc1cccc(C#N)c1-c1c(-c2cccc(-c3c(F)cc(OCC(=O)O)cc3F)c2)n(S(=O)(=O)c2ccc(C(F)F)cc2)c2ccc(F)cc12 [3/71] | < 100 |
| CC(O)(C(=O)O)c1cc(F)c(-c2cccc(-c3c(-c4c(C#N)cccc4C#N)c4cc(F)ccc4n3S(=O)(=O)c3ccc(C(F)F)cc3)c2)c(F)c1 (stereo not drawn) [3/72] | < 100 |
| Cc1ccc(S(=O)(=O)n2c(-c3cccc(C4CC4C(=O)O)c3)c(-c3ccsc3C#N)c3ccncc32)cc1 (stereo not drawn) [4/1] | 1000 to 10000 |

What follows are molecules tested against T2, full length (FL) LXRβ (Homo sapiens, UniProt P55055, DUP175-175) (assay: LXR Gal4 reporter transient transfection assay (FL-M2H Gal4β)). Conditions: HEK293 cells, full length LXRβ; read-out: FL-M2H Gal4β (EC50 range).
T2 construct: the full length (FL) proteins of LXRα (amino acids 1-447); NP005684; NP009052; expressed in transfected cells; host or cells: HEK293
T2 sequence (P55055 with tags, fused parts or gaps DUP175-175): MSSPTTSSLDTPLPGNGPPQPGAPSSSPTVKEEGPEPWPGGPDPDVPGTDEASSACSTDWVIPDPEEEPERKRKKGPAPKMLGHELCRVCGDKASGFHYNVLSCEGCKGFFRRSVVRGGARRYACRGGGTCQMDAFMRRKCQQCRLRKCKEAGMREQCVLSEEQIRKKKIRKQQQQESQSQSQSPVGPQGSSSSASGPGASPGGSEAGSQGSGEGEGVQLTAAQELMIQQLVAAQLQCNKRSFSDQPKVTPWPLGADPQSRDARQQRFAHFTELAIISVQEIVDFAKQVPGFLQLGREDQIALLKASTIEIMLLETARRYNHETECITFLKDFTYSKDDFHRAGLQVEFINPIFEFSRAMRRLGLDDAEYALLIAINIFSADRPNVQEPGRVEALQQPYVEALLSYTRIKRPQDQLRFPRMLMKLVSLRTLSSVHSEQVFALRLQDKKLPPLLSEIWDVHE
Format: cell-based
Method in brief: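 Test compounds act for 16 h on transiently transfected HEK293 cells carrying AD-LXR and GAL4 BD-cofactor (SRC1 or NCoR) fusions. Firefly luciferase under GAL4 elements is quantified and corrected with Renilla luciferase for transfection efficiency.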

| SMILES | EC50 [nM] |
| --- | --- |
| O=C(O)c1ccc(-c2cccc(-c3c(-c4ccccc4C4(F)CNC4)c4cc(F)ccc4n3S(=O)(=O)c3ccc(C(F)F)cc3)c2)c(Cl)c1 [3/61] | 100 to 1000 |
| CN1CC(F)(c2ccccc2-c2c(-c3cccc(-c4ccc(C(=O)O)cc4Cl)c3)n(S(=O)(=O)c3ccc(C(F)F)cc3)c3ccc(F)cc23)C1 [3/62] | < 100 |
| O=C(O)c1ccc(-c2cccc(-c3c(-c4ccsc4C4COC4)c4cc(F)ccc4n3S(=O)(=O)c3ccc(C(F)F)cc3)c2)c(Cl)c1 [3/63] | < 100 |
| Cc1ccc(S(=O)(=O)n2c(-c3cccc(C4CC5(CC(C(=O)O)C5)C4)c3)c(-c3ccsc3C#N)c3cc(F)ccc32)cc1 (stereo not drawn) [3/65] | < 100 |
| CC1(C)CCN(S(=O)(=O)n2c(-c3cccc(-c4ccc(C(=O)O)cc4)c3)c(-c3ccsc3C#N)c3ccccc32)CC1 [3/66] | 100 to 1000 |
| N#Cc1cccc(C#N)c1-c1c(-c2cccc(N3CC(C(=O)O)C3)c2)n(S(=O)(=O)c2ccc(C(F)F)cc2)c2ccc(F)cc12 [3/67] | 100 to 1000 |
| N#Cc1cccc(C#N)c1-c1c(-c2cccc(C3CC3C(=O)O)c2)n(S(=O)(=O)c2ccc(C(F)F)cc2)c2ccc(F)cc12 (stereo not drawn) [3/68] | < 100 |
| O=C(O)c1ccc(-c2cccc(-c3c(-c4cccc5oncc45)c4cc(F)ccc4n3S(=O)(=O)c3ccc(C(F)F)cc3)c2)c(Cl)c1 [3/69] | 100 to 1000 |
| N#Cc1cccc(C#N)c1-c1c(-c2cccc(-c3ccc(C(=O)O)cc3Cl)c2)n(S(=O)(=O)c2ccc(C(F)F)cc2)c2cnc(O)cc12 [3/70] | 100 to 1000 |
| N#Cc1cccc(C#N)c1-c1c(-c2cccc(-c3c(F)cc(OCC(=O)O)cc3F)c2)n(S(=O)(=O)c2ccc(C(F)F)cc2)c2ccc(F)cc12 [3/71] | < 100 |
| CC(O)(C(=O)O)c1cc(F)c(-c2cccc(-c3c(-c4c(C#N)cccc4C#N)c4cc(F)ccc4n3S(=O)(=O)c3ccc(C(F)F)cc3)c2)c(F)c1 (stereo not drawn) [3/72] | < 100 |
| Cc1ccc(S(=O)(=O)n2c(-c3cccc(C4CC4C(=O)O)c3)c(-c3ccsc3C#N)c3ccncc32)cc1 (stereo not drawn) [4/1] | < 100 |

These molecules were tested against T3, full length (FL) LXRα (Homo sapiens, UniProt Q13133) (assay: LXR Gal4 reporter transient transfection assay (FL-M2H Gal4α)). Conditions: HEK293 cells, full length LXRα; read-out: FL-M2H Gal4α (EC50 range).
T3 construct: the full length (FL) proteins of LXRα (amino acids 1-447); NP005684; expressed in transfected cells; host or cells: HEK293
T3 sequence (Q13133 1-447): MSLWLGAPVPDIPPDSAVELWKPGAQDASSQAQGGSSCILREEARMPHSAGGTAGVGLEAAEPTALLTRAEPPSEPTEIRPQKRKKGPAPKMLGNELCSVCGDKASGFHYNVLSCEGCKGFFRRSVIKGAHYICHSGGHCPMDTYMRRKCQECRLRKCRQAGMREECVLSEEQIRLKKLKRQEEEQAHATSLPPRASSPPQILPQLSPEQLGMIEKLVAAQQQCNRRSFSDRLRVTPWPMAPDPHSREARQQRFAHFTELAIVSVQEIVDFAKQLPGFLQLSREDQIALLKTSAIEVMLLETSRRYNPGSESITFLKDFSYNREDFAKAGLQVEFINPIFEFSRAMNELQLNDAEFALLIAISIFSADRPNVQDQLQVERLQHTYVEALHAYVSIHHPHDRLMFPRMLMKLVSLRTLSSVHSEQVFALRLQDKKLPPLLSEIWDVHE
Format: cell-based
Protocol: The tested compounds were usually dissolved, tested and stored as 20 mM stock solutions in DMSO. Since sulfonyl acetic acid derivatives tend to decarboxylate under these conditions, these stock solutions were prepared, tested and stored as 20 mM DMSO stock solutions containing 100 mM trifluoroacetic Acid (5 equivalents). Sulfonyl acetic acid derivatives are shelf stable as solid at rt for long time as reported by Griesbrecht et al. (Synlett 2010:374) or Faucher et al. (J. Med. Chem. 2004; 47:18).
LXR Gal4 Reporter Transient Transfection Assays
LXRα and LXRβ activity status was determined via detection of interaction with coactivator and corepressor proteins in mammalian two-hybrid experiments (M2H). For this, via transient transfection the full length (FL) proteins of LXRα (amino acids 1-447; NP005684; SEQ ID NO:1) or LXRβ-(amino acids 1-461; NP009052; SEQ ID NO:2) or the ligand-binding domains (LBD) of LXRα (amino acids 155-447 SEQ ID NO:3) or LXRβ (amino acids 156-461; SEQ ID NO:4) were expressed from pCMV-AD (Stratagene) as fusions to the transcriptional activation domain of NFkB. As cofactors, domains of either the steroid receptor coactivator 1 (SRC1; amino acids 552-887; SEQ ID NO:5) or of the corepressor NCoR (amino acids 1906-2312; NP006302; SEQ ID NO:6) were expressed as fusions to the DNA binding domain of the yeast transcription factor GAL4 (from pCMV-BD; Stratagene). Interaction was monitored via activation of a coexpressed Firefly Luciferase Reporter gene under control of a promoter containing repetitive GAL4 response elements (vector pFRLuc; Stratagene). Transfection efficiency was controlled via cotransfection of constitutively active pRL-CMV Renila reniformis luciferase reporter (Promega). HEK293 cells were grown in minimum essential medium (MEM) with 2 mM L-glutamine and Earle's balanced salt solution supplemented with 8.3% fetal bovine serum, 0.1 mM non-essential amino acids, 1 mM sodium pyruvate, at 37° C. in 5% CO2. 3.5×10^4 cells/well were plated in 96-well cell culture plates in growth medium supplemented with 8.3% fetal bovine serum for 16-20 h to ˜90% confluency. For transfection, medium was taken off and LXR and cofactor expressing plasmids as well as the reporter plasmids are added in 30 μL OPTIMEM/well including polyethylene-imine (PEI) as vehicle. Typical amounts of plasmids transfected/well: pCMV-AD-LXR (5 ng), pCMV-BD-cofactor (5 ng), pFR-Luc (100 ng), pRL-CMV (0.5 ng). Compound stocks were prepared in DMSO, prediluted in MEM to a total volume of 120 μL, and added 4 h after addition of the transfection mixture (final vehicle concentration not exceeding 0.2%). Cells were incubated for additional 16 h, lysed for 10 min in 1× Passive Lysis Buffer (Promega) and Firefly and Renilla luciferase activities were measured sequentially in the same cell extract using buffers containing D-luciferine and coelenterazine, respectively. Measurements of luminescence were done in a BMG-luminometer.

| SMILES | EC50 [nM] |
| --- | --- |
| O=C(O)c1ccc(-c2cccc(-c3c(-c4ccccc4C4(F)CNC4)c4cc(F)ccc4n3S(=O)(=O)c3ccc(C(F)F)cc3)c2)c(Cl)c1 [3/61] | 100 to 1000 |
| CN1CC(F)(c2ccccc2-c2c(-c3cccc(-c4ccc(C(=O)O)cc4Cl)c3)n(S(=O)(=O)c3ccc(C(F)F)cc3)c3ccc(F)cc23)C1 [3/62] | 100 to 1000 |
| O=C(O)c1ccc(-c2cccc(-c3c(-c4ccsc4C4COC4)c4cc(F)ccc4n3S(=O)(=O)c3ccc(C(F)F)cc3)c2)c(Cl)c1 [3/63] | < 100 |
| Cc1ccc(S(=O)(=O)n2c(-c3cccc(C4CC5(CC(C(=O)O)C5)C4)c3)c(-c3ccsc3C#N)c3cc(F)ccc32)cc1 (stereo not drawn) [3/65] | < 100 |
| CC1(C)CCN(S(=O)(=O)n2c(-c3cccc(-c4ccc(C(=O)O)cc4)c3)c(-c3ccsc3C#N)c3ccccc32)CC1 [3/66] | 100 to 1000 |
| N#Cc1cccc(C#N)c1-c1c(-c2cccc(N3CC(C(=O)O)C3)c2)n(S(=O)(=O)c2ccc(C(F)F)cc2)c2ccc(F)cc12 [3/67] | 100 to 1000 |
| N#Cc1cccc(C#N)c1-c1c(-c2cccc(C3CC3C(=O)O)c2)n(S(=O)(=O)c2ccc(C(F)F)cc2)c2ccc(F)cc12 (stereo not drawn) [3/68] | < 100 |
| O=C(O)c1ccc(-c2cccc(-c3c(-c4cccc5oncc45)c4cc(F)ccc4n3S(=O)(=O)c3ccc(C(F)F)cc3)c2)c(Cl)c1 [3/69] | 100 to 1000 |
| N#Cc1cccc(C#N)c1-c1c(-c2cccc(-c3ccc(C(=O)O)cc3Cl)c2)n(S(=O)(=O)c2ccc(C(F)F)cc2)c2cnc(O)cc12 [3/70] | 100 to 1000 |
| N#Cc1cccc(C#N)c1-c1c(-c2cccc(-c3c(F)cc(OCC(=O)O)cc3F)c2)n(S(=O)(=O)c2ccc(C(F)F)cc2)c2ccc(F)cc12 [3/71] | < 100 |
| CC(O)(C(=O)O)c1cc(F)c(-c2cccc(-c3c(-c4c(C#N)cccc4C#N)c4cc(F)ccc4n3S(=O)(=O)c3ccc(C(F)F)cc3)c2)c(F)c1 (stereo not drawn) [3/72] | < 100 |
| Cc1ccc(S(=O)(=O)n2c(-c3cccc(C4CC4C(=O)O)c3)c(-c3ccsc3C#N)c3ccncc32)cc1 (stereo not drawn) [4/1] | 100 to 1000 |
